{
  "source": "ChEMBL document CHEMBL5137070",
  "about": "“N-2-(Phenylamino) Benzamide Derivatives as Dual Inhibitors of COX-2 and Topo I Deter Gastrointestinal Cancers via Targeting Inflammation and Tumor Progression” (J Med Chem, 2022)",
  "key": {"RAW264.7 [1]": {"system": "RAW264.7", "experiment": "Cytotoxicity against mouse RAW264.7 cells assessed as reduction in cell viability at <=11.11 for 24 hrs by MTT assay", "format": "toxicity, cell-based", "conditions": "raw264.7, 24 h"}, "HGC-27 [2]": {"system": "HGC-27", "experiment": "Induction of apoptosis in human HGC-27 cells assessed as increase in caspase-3 activity at 1.1 to 10 uM incubated for 36 hrs by flow cytometry", "format": "functional, cell-based", "conditions": "dose 1.1-10 µM, DDE = dose-dependent effect"}, "RKO [3]": {"system": "RKO", "experiment": "Induction of apoptosis in human RKO cells assessed as increase in cleaved caspase-9 expression at 1.1 to 10 uM incubated for 24 hrs by western blot assay", "format": "functional, cell-based", "conditions": "dose 1.1-10 µM"}, "SGC-7901": {"system": "SGC-7901", "experiment": "Antiproliferative activity against human SGC-7901 cells assessed as reduction in cell proliferation incubated for 48 hrs by MTT assay", "format": "functional, cell-based", "conditions": "SGC-7901, 48 h"}, "RAW264.7 [4]": {"system": "RAW264.7", "experiment": "Antiinflammatory activity against LPS-stimulated mouse RAW264.7 cells assessed decrease in IL-1beta release at 6.6 uM incubated for 1 hrs followed by LPS stimulation and measured after 24 hrs by ELISA relative to control", "format": "functional, cell-based", "conditions": "time 25.0 hrs"}, "RKO [5]": {"system": "RKO", "experiment": "Induction of apoptosis in human RKO cells assessed as increase in caspase-3 activity at 10 uM incubated for 36 hrs by flow cytometry (Rvb= 1.08%)", "format": "functional"}, "CT26.WT [6]": {"system": "CT26.WT", "experiment": "Anti-tumor activity against mouse CT26.WT xenografted in BALB/c mouse assessed as decrease in tumor weight at 100 mg/kg, ip twice daily and measured upto 14 days relative to control", "format": "functional, organism-based", "conditions": "time <= 14.0 day"}, "RKO [7]": {"system": "RKO", "experiment": "Induction of apoptosis in human RKO cells assessed as increase in cytochrome C level at 1.1 to 10 uM incubated for 24 hrs by western blot assay", "format": "functional, cell-based", "conditions": "dose 1.1-10 µM"}, "RKO [8]": {"system": "RKO", "experiment": "Anti-migration activity against human RKO cells assessed as decrease in cell migration rate at 0.37 uM for 48 hrs by crystalline violet staining based assay", "format": "functional"}, "RKO [9]": {"system": "RKO", "experiment": "Antiproliferative activity against human RKO cells assessed as cell viability at <= 0.41 uM for 48 hrs by MTT assay", "format": "functional", "conditions": "up to 0.41 µM"}, "RKO [10]": {"system": "RKO", "experiment": "Induction of cell cycle arrest in human RKO cells assessed as accumulation at G2/M phase at 3.3 to 10 uM for 24 hrs by propidium iodide staining based flow cytometry", "format": "functional", "conditions": "dose 3.3-10 µM"}, "RKO [11]": {"system": "RKO", "experiment": "Antiproliferative activity against human RKO cells assessed as reduction in cell proliferation incubated for 48 hrs by MTT assay", "format": "functional, cell-based"}, "RKO [12]": {"system": "RKO", "experiment": "Effect on cell morphology in human RKO cells assessed as lose of adherence at 10 uM incubated for 48 hrs by giemsa staining based microscopic analysis", "format": "functional"}, "[13]": {"experiment": "Toxicity in BALB/c mouse xenografted with mouse CT26.WT assessed as pathological changes in kidney at 100 mg/kg, ip twice daily and measured after 14 days by hematoxylin and eosin staining based microscopic analysis", "format": "organism-based", "conditions": "in vivo, 336 h, time 14 day"}, "RKO [14]": {"system": "RKO", "experiment": "Induction of apoptosis in human RKO cells assessed as increase in caspase-3 activity at 1.1 to 10 uM incubated for 36 hrs by flow cytometry", "format": "functional, cell-based", "conditions": "dose 1.1-10 µM, DDE = dose-dependent effect"}, "CT26.WT [15]": {"system": "CT26.WT", "experiment": "Anti-tumor activity against mouse CT26.WT xenografted in BALB/c mouse assessed as decrease in COX-2 expression level in tumor tissue at 100 mg/kg, ip twice daily and measured after 14 days by immunohistochemical analysis", "format": "functional, organism-based", "conditions": "time 14.0 day"}, "[16]": {"experiment": "Toxicity in BALB/c mouse xenografted with mouse CT26.WT assessed as pathological changes in lung at 100 mg/kg, ip twice daily and measured after 14 days by hematoxylin and eosin staining based microscopic analysis", "format": "organism-based", "conditions": "in vivo, 336 h, time 14 day"}, "RKO [17]": {"system": "RKO", "experiment": "Induction of apoptosis in human RKO cells assessed as increase in Bax/Bcl-2 ratio expression at 1.1 to 10 uM incubated for 24 hrs by western blot assay", "format": "functional, cell-based", "conditions": "dose 1.1-10 µM"}, "[18]": {"experiment": "Acute toxicity in Kunming mouse assessed as lethal dose at 100 mg/kg,ip and measured upto 14 days", "format": "organism-based", "conditions": "in vivo, time < 14 day"}, "RAW264.7 [19]": {"system": "RAW264.7", "experiment": "Antiinflammatory activity in mouse RAW264.7 cells assessed as reduction in LPS-induced COX-2 expression at 6.6 uM incubated for 1 hrs followed by LPS stimulation and measured after 24 hrs by western blot analysis", "format": "functional, cell-based", "conditions": "time 25.0 hrs"}, "[20]": {"experiment": "Toxicity in BALB/c mouse xenografted with mouse CT26.WT assessed as pathological changes in liver at 100 mg/kg, ip twice daily and measured after 14 days by hematoxylin and eosin staining based microscopic analysis", "format": "organism-based", "conditions": "in vivo, 336 h, time 14 day"}, "HGC-27 [21]": {"system": "HGC-27", "experiment": "Induction of apoptosis in human HGC-27 cells assessed as increase in caspase-3 activity at 1.1 uM incubated for 36 hrs by flow cytometry (Rvb= 9.39%)", "format": "functional"}, "CT26.WT [22]": {"system": "CT26.WT", "experiment": "Antiproliferative activity against mouse CT26.WT cells assessed as reduction in cell proliferation incubated for 48 hrs by MTT assay", "format": "functional, cell-based"}, "[23]": {"experiment": "Cmax in Sprague-Dawley rat at 100 mg/kg, ip and measured upto 8 hrs by LC-MS/MS analysis", "format": "ADME, organism-based", "design": "time < 8 hrs, dose 100 mg/kg, route ip", "conditions": "in vivo"}, "RKO [24]": {"system": "RKO", "experiment": "Effect on cell morphology in human RKO cells assessed as appearance of smaller cells at 10 uM incubated for 48 hrs by giemsa staining based microscopic analysis", "format": "functional"}, "HGC-27 [25]": {"system": "HGC-27", "experiment": "Anti-metastasis activity against human HGC-27 cells assessed as reduction in MMP-9 expression level at 3.3 to 10 uM for 24 hrs by western blot analysis", "format": "functional, cell-based", "conditions": "dose 3.3-10 µM"}, "RAW264.7 [26]": {"system": "RAW264.7", "experiment": "Antiinflammatory activity in mouse RAW264.7 cells assessed as reduction in LPS-induced NF-kappaB nuclear translocation at 6.6 uM incubated for 1 hrs followed by LPS stimulation for 1 hrs by DAPI staining based immunofluorescence assay", "format": "functional, cell-based", "conditions": "time 2.0 hrs"}, "RAW264.7 [27]": {"system": "RAW264.7", "experiment": "Inhibition of LPS induced NO production in mouse RAW264.7 cells at 1.1 uM incubated for 1 hrs followed by LPS stimulation and measured after 24 hrs by Griess reagent based assay", "format": "functional, cell-based", "conditions": "time 25.0 hrs"}, "HGC-27 [28]": {"system": "HGC-27", "experiment": "Induction of apoptosis in human HGC-27 cells assessed as increase in cleaved caspase-9 expression at 1.1 to 10 uM incubated for 24 hrs by western blot assay", "format": "functional, cell-based", "conditions": "dose 1.1-10 µM"}, "HGC-27 [29]": {"system": "HGC-27", "experiment": "Effect on cell morphology in human HGC-27 cells assessed as appearance of round cells at 10 uM incubated for 48 hrs by giemsa staining based microscopic analysis", "format": "functional"}, "RAW264.7 [30]": {"system": "RAW264.7", "experiment": "Inhibition of LPS induced NO production in mouse RAW264.7 cells at 6.6 uM incubated for 1 hrs followed by LPS stimulation and measured after 24 hrs by Griess reagent based assay", "format": "functional, cell-based", "conditions": "time 25.0 hrs"}, "HGC-27 [31]": {"system": "HGC-27", "experiment": "Induction of apoptosis in human HGC-27 cells assessed as increase in caspase-3 activity at 3.3 uM incubated for 36 hrs by flow cytometry (Rvb= 9.39%)", "format": "functional"}, "HGC-27 [32]": {"system": "HGC-27", "experiment": "Effect on cell morphology in human HGC-27 cells assessed as appearance of smaller cells at 10 uM incubated for 48 hrs by giemsa staining based microscopic analysis", "format": "functional"}, "HGC-27 [33]": {"system": "HGC-27", "experiment": "Induction of apoptosis in human HGC-27 cells assessed as increase in caspase-3 activity at 10 uM incubated for 36 hrs by flow cytometry (Rvb= 9.39%)", "format": "functional"}, "RKO [34]": {"system": "RKO", "experiment": "Anti-migration activity against human RKO cells assessed as inhibition of cell migration at 0.37 uM and measured after 24 hrs by wound healing assay", "format": "functional, cell-based"}, "RAW264.7 [35]": {"system": "RAW264.7", "experiment": "Antiinflammatory activity against LPS-stimulated mouse RAW264.7 cells assessed decrease in IL-1beta release at 1.1 uM incubated for 1 hrs followed by LPS stimulation and measured after 24 hrs by ELISA", "format": "functional, cell-based", "conditions": "time 25.0 hrs"}},
  "note": "Activity calls are given as the source filed them. No cut-off for these calls is given here.",
  "data": [
    {"compound": "Cc1c(Cl)cccc1Nc1ccc(F)cc1C(=O)NCc1ccc(O)c(O)c1", "values": [
      {"measurement": "Activity", "setting": "RAW264.7 [1]", "result": "> 80", "unit": "%"},
      {"measurement": "Activity", "setting": "HGC-27 [2]", "result": "Dde"},
      {"measurement": "Activity", "setting": "RKO [3]", "result": "Active"},
      {"measurement": "IC50", "setting": "SGC-7901", "result": 15, "unit": "µM"},
      {"measurement": "Activity", "setting": "RAW264.7 [4]", "result": "Active"},
      {"measurement": "Activity", "setting": "RKO [5]", "result": 55.94, "unit": "%"},
      {"measurement": "Activity", "setting": "CT26.WT [6]", "result": "Active"},
      {"measurement": "Activity", "setting": "RKO [7]", "result": "Active"},
      {"measurement": "Activity", "setting": "RKO [8]", "result": "Active"},
      {"measurement": "Activity", "setting": "RKO [9]", "result": ">80", "unit": "%"},
      {"measurement": "Activity", "setting": "RKO [10]", "result": "Active"},
      {"measurement": "IC50", "setting": "RKO [11]", "result": 3.12, "unit": "µM"},
      {"measurement": "Activity", "setting": "RKO [12]", "result": "Active"},
      {"measurement": "Activity", "setting": "[13]", "result": "Non-Toxic"},
      {"measurement": "Activity", "setting": "RKO [14]", "result": "Dde"},
      {"measurement": "Activity", "setting": "CT26.WT [15]", "result": "Active"},
      {"measurement": "Activity", "setting": "[16]", "result": "Non-Toxic"},
      {"measurement": "Activity", "setting": "RKO [17]", "result": "Active"},
      {"measurement": "LD50 at 336 h", "setting": "[18]", "result": "> 100", "unit": "mg/kg"},
      {"measurement": "Activity", "setting": "RAW264.7 [19]", "result": "Active"},
      {"measurement": "Activity", "setting": "[20]", "result": "Non-Toxic"},
      {"measurement": "Activity", "setting": "HGC-27 [21]", "result": 57.64, "unit": "%"},
      {"measurement": "IC50", "setting": "CT26.WT [22]", "result": 3.04, "unit": "µM"},
      {"measurement": "Cmax", "setting": "[23]", "result": 20200, "unit": "ng/mL"},
      {"measurement": "Activity", "setting": "RKO [24]", "result": "Active"},
      {"measurement": "Activity", "setting": "HGC-27 [25]", "result": "Active"},
      {"measurement": "Activity", "setting": "RAW264.7 [26]", "result": "Active"},
      {"measurement": "inhibition", "setting": "RAW264.7 [27]", "result": "Active"},
      {"measurement": "Activity", "setting": "HGC-27 [28]", "result": "Active"},
      {"measurement": "Activity", "setting": "HGC-27 [29]", "result": "Active"},
      {"measurement": "inhibition", "setting": "RAW264.7 [30]", "result": "Active"},
      {"measurement": "Activity", "setting": "HGC-27 [31]", "result": 68.8, "unit": "%"},
      {"measurement": "Activity", "setting": "HGC-27 [32]", "result": "Active"},
      {"measurement": "Activity", "setting": "HGC-27 [33]", "result": 69.46, "unit": "%"},
      {"measurement": "Activity", "setting": "RKO [34]", "result": "Active"},
      {"measurement": "Activity", "setting": "RAW264.7 [35]", "result": "Active"}
    ]}
  ]
}
